# Measurements as given in patent US12048320B2, “Process for preparing high density, thermostable polysaccharide beads as food additives” (DNA CATCHER, S.L, priority 2019, dated 2024).
# Assays:
# [1] = End point (maximum) amount of water miscible solvent in hydrated DB; format: physicochemical; details: MV alginate, 1:1.25 alginate:water
# Protocol: Hydrated DB beads were prepared as example 1 using MV alginate. In this case, the water was used to achieve alginate within the hydrated beads to be 44.44% (w/w), which means 125 mL water and 100 g MV alginate (1:1.25 alginate:water ratio). WMS were propylene glycols (PG), glycerol, polyethylene glycol (PEG400) and absolute ethanol. Then, different amounts of volatile and non-volatile water miscible solvents (WMS) were added slowly to the hydrated beads under high shear mixing. The end point (the optimized amount of WMS) was calculated by monitoring physical properties of hydrated beads including size and hardness as described in examples 1 & 2. […] Beads then were cross-linked, washed and dried as described in example 1.
# The end point (end point ratio by weight (alginate:water:WMS)) in table 14 means the maximum amount of WMS that allows to obtain acceptable bead hardness (more than 1 kg/cm^2/g beads) and acceptable size range of both wet and dry beads according to the established criteria in table 3 and 4, example 1.
# [2] = Limonene loss post baking of pancakes (gas chromatography); format: physicochemical; details: pancakes baked at 200° C. for 15 min
# Protocol: The amount of D-limonene was assayed pre and post baking. For this purpose, 10 ml of distilled water was added to 5 g pancakes. Then, 30 ml methanol was added and the mixture was centrifuged at 3000 rpm for 20 min for further assay by gas chromatography. The % of lost limonene post packing as the following equation and expressed as the % of lost limonene post packing (w/w): % of lost limonene post baking (w/w)=(Initial amount added before backing−Residual amount of limonene found in baked pancakes)[…] Results
Total maximum amount of WMS expressed as % w/w [1] [% w/w],"The % of lost limonene one day post packing (w/w), Mean ([2]; one day)","The % of lost limonene one month post packing (w/w), Mean ([2]; one month)",Compound
25.00,–,–,"CCO [Ethanol, absolute ethanol]"
–,89.56 % (w/w),93.23 % (w/w),"C=C(C)[C@H]1CC=C(C)CC1 [Free limonene, (4R)-1-methyl-4-(1-methylethenyl)-cyclohexene]"
34.78,–,–,"OCC(O)CO [Glycerol, glycerol]"
36.61,–,–,"CC(O)CO (centres unmarked) [Propylene glycols (PG), propylene glycols]"
